# According to patent US10357486B2, “Treatment of cognitive impairment with PDE4 inhibitor” (Universiteit Maastricht, priority 2013, dated 2019):
# Marks after values point to notes of the source that are not given here.
# Assays:
# phosphodiesterase 4 = conditions: after administration of roflumilast; stated as believed; cited from earlier work
# [1] = Plasma concentration levels of roflumilast and roflumilast-N-oxide in humans; type: in vivo, human
# Source text: An interim analysis has been performed based on the data of 9 subjects of the Impaired Elderly group and 4 subjects of the Healthy Elderly group. For this purpose, cognitive battery test scores (VLT, SMT, Stroop task and BL-VAS) and concentrations of roflumilast and roflumilast-N-oxide in plasma have been analysed and summarized by dose over each scheduled sampling time using descriptive statistics.
# [2] = system: spatial memory in male C57BL/6NCrl mice; assay: Object Location Task (OLT), 24-hour retention interval; type: in vivo; conditions: for d2 index, discrimination index between the new and familiar objects for T2: given 3 hours after T1, T2 after 24 h, mean (SEM)
# Source text: The objective of this study was to evaluate the cognitive improvement effects of Roflumilast on spatial memory employing Object Location Task (OLT) in male C57BL/6NCrl mice. Roflumilast was compared with data of the already established PDE4 inhibitor Rolipram in the same model.
# Maintenance of Animals Twenty-four 7 month-old male C57BL/6NCrl mice (Charles River, L'Arbresle, France) were used (average body weights: 27.6 g). The animals were kept under a 12/12-hour light/dark cycle (lights on from 07.00 pm to 07.00 am) with free access to food and water. All testing was done between 09.00 am and maximally 06.00 pm.
# Preparation of Compounds for Administration Both rolipram (Sigma-Aldrich St. Louis, USA; MW 275.34) and roflumilast (Biocrea, Radebeul, Germany; MW 403.21) were dissolved in dimethylsulfoxide (DMSO) and kept at 4 ° C.; this stock solution was used for further dilutions in 0.5% methylcellulose. Each of rolipram and roflumilast is used in form of its free base. All injected solutions consisted of 0.5% methylcellulose with a fixed DMSO percentages (1.2%) (vehicle).
# Object Location Task Studies in Rodents For the Object Location Task (OLT), doses of 0.01 mg/kg, 0.03 mg/kg and 0.1 mg/kg of Rolipram or Roflumilast or vehicle were administered subcutaneously (s.c.). Based on previous findings, PDE4 inhibitor single administration was performed 3 hours after the first trial as this has an optimum effect on object memory performance. The injection volume was 5 μl/g.
# The OLT apparatus consisted of a circular arena, 40 cm in diameter. Half of the 40 cm transparent polyvinyl chloride wall was covered from the outside with white paper. Two objects were placed symmetrically about 10 cm away from the wall on the separation line, between the transparent and covered side of the arena. Four different sets of objects were available: (1) a cone made of brass (maximal diameter 6 cm and total height 3.8 cm), (2) a transparent glass bottle (diameter 2.7 cm, height 8.5 cm) filled with sand and water, (3) a massive metal cube (2.5 cm×5 cm×7.5 cm) with two holes (diameter 1.5 cm), and (4) a massive aluminum cube with a tapering top (4.5 cm×4.5 cm×8.5 cm).
# A testing session comprised two trials of 4 minutes. Before each trial, mice were placed in an empty Makrolon cage (incubation cage) for the same amount of time as the trial (4 min). During the first trial (T1), two identical objects were placed symmetrically about 10 cm away from the wall on the separation line between the transparent and covered side of the arena. After the first exploration period of 4 min, the mouse was put back in its home cage. Mice then received treatment at 3 hours post T1. Subsequently, after a predetermined delay interval (24h), the mouse was placed in the apparatus for the second trial of 4 min (T2). Two identical objects as in T1 were used; one object was placed in the previously used position, whereas the other was placed in a novel position. The novel position of the object could either be a fixed distance towards the front or a fixed distance towards the back of the arena for both objects. The times spent exploring each object during T1 and T2 were recorded manually using a personal computer. All objects and locations were used in a balanced manner to exclude possible object and/or location preferences. To avoid olfactory cues, the objects were thoroughly cleaned with 70% ethanol after each trial. The testing order of conditions was determined randomly.
# Statistical Data Analysis The measurements reflected the time spent by the mice in exploring each object during T1 and T2. The time spent in exploring the two identical samples in T1 were represented by ‘a1’ and ‘a2’, respectively. The time spent in exploring the sample and the new object in T2 were represented by ‘a’ and ‘b’, respectively. From these exploration times the following variables were calculated: e1, e2, and d2 (Table 1). The d2 index is a relative measure of discrimination corrected for exploratory activity. […]
# [3] = system: xylazine/ketamine induced α2-adrenergic receptor-mediated anesthesia; assay: xylazine/ketamine induced α2-adrenergic receptor-mediated anesthesia test (emetic potential); type: in vivo; conditions: in vivo, 0.3 mg/kg
# Source text: Since emesis is a typical side-effect of phosphodiesterase 4 inhibitors the emetic potential of roflumilast and rolipram was investigated in parallel using the xylazine/ketamine induced α2-adrenergic receptor-mediated anesthesia test. The results confirmed that the two phosphodiesterase 4 inhibitors have different effects on emesis.
# [4] = system: scopolamine induced memory deficit in male Wistar rats; assay: Object recognition task (ORT), scopolamine induced memory deficit; type: in vivo; conditions: scopolamine 0.1 mg/kg ip + vehicle
# Source text: The objective of this study is to evaluate the efficacious dose range of roflumilast with regard to cognitive improvement effects by using scopolamine induced memory deficit on object memory performance in male Wistar rats. Memory acquisition processes are investigated using the object recognition test (ORT).
# Maintenance of Animals: Sixteen 3-4 month old male Wistar rats (Charles River, Sulzfeld, Germany) were used for the study. All animals were housed individually in standard green line Tecniplast IVC cages on stardust bedding. The animals were housed on a reversed 12/12 h light/dark cycle (lights on from 07:00 pm to 07:00 am) and had free access to food and water. The rats were housed and tested in the same room. A radio, playing softly, provided background noise in the room. All testing was performed between 09:00 am and 06:00 pm.
# Preparation of Compounds: Drugs were prepared daily, except as indicated otherwise. Roflumilast (Takeda, Konstanz, Germany, MW 403.21) was dissolved in 98% methylcellulose solution (0.5% methylcellulose) and 2% Tween 80. Roflumilast in doses of 0 (vehicle), 0.0001, 0.0003, 0.001, 0.003, 0.01 and 0.03 mg/kg was administered intraperitoneally (ip, injection volume 1 ml/kg). Scopolamine (in form of scopolamine hydrobromide) was dissolved in saline (0.9% NaCl). Scopolamine hydrobromide was administered intraperitoneally at a dose of 0.1 mg/kg (ip, injection volume 1 ml/kg). Scopolamine and roflumilast were administered 30 min before T1.
# Object Recognition Task in Rats: The ORT was performed as described elsewhere (Ennaceur and Delaceur, 1988, Behav Brain Res, Vol 31, pp 47-59; Akkerman et al; 2012, Behav Brain Res, Vol 232, pp 335-347). The apparatus consisted of a circular arena, 83 cm in diameter. The back half of the 40 cm high wall was made of grey PVC and the front was made of transparent PVC. Fluorescent red tubes and a light bulb provided a constant illumination of about 20 lux on the floor of the apparatus. The light intensity was equal in the different parts of the apparatus.
# Two objects were placed in symmetrical positions at the mid-line between the gray and transparent halves of the arena, about ten centimeters away from wall. Four different sets of objects were available: 1) a standard 1 L brown transparent glass bottle (diameter 10 cm, height 22 cm) filled with water, 2) a metal cube (10.0×5.0×7.5 cm) with two holes (diameter 1.9 cm), 3) a cone consisting of a gray PVC base (maximal diameter 18 cm) with a collar on top made of brass (total height 16 cm), and 4) an aluminium cube with a tapering top (13.0×8.0×8.0 cm). Objects were presented to the animals in a balanced manner to avoid object or place biases. Rats were unable to displace the objects.
# A test session comprised two trials, each with durations of 3 min. During the learning trial (T1) the apparatus contains two identical objects (object al and a2). Rats were always introduced into the apparatus with their nose towards the transparent wall segment (i.e. facing outwards to the front of the arena). Subsequently, rats were put back in its home cage for a 1 h interval. After the retention interval, rats were put back into the arena for the […] (T2). In T2, the two objects from T1 were replaced by one identical copy (a3) and a different novel object (b). The times spent in exploring each object during T1 and T2 were recorded manually on a personal computer.
# Exploration was defined in the following manner: directing the nose to the object at a distance of no more than 2 cm and/or touching the object with the nose. Sitting on the object was not considered as exploratory behavior. In order to avoid the presence of olfactory cues, the objects were thoroughly cleaned with a 70% ethanol solution before each trial.
# Prior to compound testing, the animals were handled for 5 min on 2 consecutive days and allowed to explore the ORT arena, also for 5 min. […]
structure (smiles),measurement,setting,value
"O=C(Nc1c(Cl)c[n+]([O-])cc1Cl)c1ccc(OC(F)F)c(OCC2CC2)c1 [roflumilast-N-oxide, 3-cyclopropyl-methoxy-4-difluoromethoxy-N-(3,5-dichloro-1-oxypyrid-4-yl)benzamide]",share of overall phosphodiesterase 4 inhibition in humans,phosphodiesterase 4,more than 90%
same,exposure (concentrations in plasma),"[1]; elderly study, interim analysis, 100, 250, 1000 mcg",consistent with those previously reported
same,steady state plasma concentration levels in once a day repeated dosing compared to once a day single dosing,"[1]; humans, once a day (24 h) regimen",about two-fold
COc1ccc(C2CNC(=O)C2)cc1OC1CCCC1 (stereo not drawn) [rolipram],"d2 index, discrimination index between the new and familiar objects for T2",[2]; 0.01 mg/kg s.c.,0.08 (0.05)
same,d2 index compared with the vehicle condition (post-hoc Bonferroni t-test),[2]; 0.03 mg/kg s.c.,differed significantly from the vehicle condition
same,"d2 index, discrimination index between the new and familiar objects for T2",[2]; 0.03 mg/kg s.c.,0.13 (0.05) #
same,d2 index compared with zero (one-sample t-test),"[2]; 0.03 mg/kg s.c., after twenty-four hours",significantly differed from zero
same,"d2 index, discrimination index between the new and familiar objects for T2",[2]; 0.1 mg/kg s.c.,0.07 (0.05)
same,effect on spatial memory measured by the object location task test,[2]; single subcutaneous administration of 0.03 mg/kg,effective
same,emetic potential,[3],strong emetic potential
CN1[C@@H]2C[C@@H](OC(=O)[C@H](CO)c3ccccc3)C[C@H]1[C@@H]1O[C@@H]12 [scopolamine],d2 value compared to the vehicle condition (post-hoc Bonferroni t-test),[4],significantly lower
same,d2 (discrimination index),"[4]; 1 h retention, mean (SEM)",0.01 (0.08)
